Measurements as given in ChEMBL document CHEMBL5325501, “Discovery of BWA-522, a First-in-Class and Orally Bioavailable PROTAC Degrader of the Androgen Receptor Targeting N-Terminal Domain for the Treatment of Prostate Cancer” (J Med Chem, 2023).
Calls of active or inactive are those of the source. The calls are words filed in the database; no cut-off is given here.

Tests used:
PC-3 [1] = experiment: Cytotoxicity against human PC-3 cells assessed as cell death at 5 uM; assay type: toxicity, cell-based; conditions: pc-3, 5 µM
CWR22R [2] = experiment: Cytotoxicity against human 22Rv1 cells assessed as cell death at 5 uM; assay type: toxicity, cell-based
LNCaP [3] = experiment: Antitumor activity against human LNCaP cells xenografted in NOD SCID mouse assessed as tumor growth inhibition at 10 mg/kg, po administered daily for 4 weeks relative to control; conditions: 672 h, read-out: TGI
RWPE-1 = experiment: Cytotoxicity against human RWPE-1 cells assessed as reduction in cell viability incubated for 6 days by CCK8 assay; assay type: toxicity, cell-based; conditions: rwpe-1, 144 h, time 6 day
PC-3 [4] = experiment: Cytotoxicity against human PC-3 cells assessed as cell death at high concentration incubated for 24 hrs; assay type: toxicity, cell-based; conditions: pc-3, 24 h
[5] = target: T1, Protein cereblon/Androgen receptor (Homo sapiens) (UniProt P10275+Q96SW2); experiment: PROTAC activity at CRBN/full-length AR in human 22Rv1 cells assessed as induction of AR degradation at 0.03 to 1 uM incubated for 24 hrs by Western blot analysis; assay type: cell-based; conditions: dose 0.03-1 µM
[6] = target: T1, Protein cereblon/Androgen receptor (Homo sapiens); experiment: PROTAC activity at CRBN/full-length AR in human […] cells assessed as induction of AR degradation at 0.03 to 1 uM incubated for 24 hrs by Western blot analysis; assay type: cell-based; conditions: dose 0.03-1 µM
[7] = test system: Protein cereblon/Androgen receptor (Homo sapiens), P10275+Q96SW2 [UNDEFINED MUTATION]; experiment: PROTAC activity at CRBN/AR-V7 in human […] cells assessed as induction of AR degradation at 0.03 to 1 uM incubated for 24 hrs by Western blot analysis; assay type: cell-based; conditions: dose 0.03-1 µM
[8] = Cytotoxicity against human PC-3 cells assessed as inhibition of cell growth incubated for 6 days; assay type: toxicity, cell-based
[9] = test system: Protein cereblon/Androgen receptor (Homo sapiens), P10275+Q96SW2 [UNDEFINED MUTATION]; experiment: PROTAC activity at CRBN/AR-V7 in human 22Rv1 cells assessed as induction of AR degradation at 0.03 to 1 uM incubated for 24 hrs by Western blot analysis; assay type: cell-based; conditions: dose 0.03-1 µM
CWR22R [10] = experiment: Cytotoxicity against human 22Rv1 cells assessed as cell death at high concentration incubated for 24 hrs; assay type: toxicity, cell-based
[11] = Tmax in ICR mouse at 10 mg/kg, po measured by LC-MS/MS analysis; assay type: ADME, organism-based; conditions: in vivo
[12] = Cmax in ICR mouse at 10 mg/kg, po measured by LC-MS/MS analysis; assay type: ADME, organism-based; design: dose 10 mg/kg, route po; conditions: in vivo
[13] = Clearance in ICR mouse at 2 mg/kg, iv measured by LC-MS/MS analysis; assay type: ADME, organism-based; conditions: in vivo
[14] = Half-life in ICR mouse at 2 mg/kg, iv measured by LC-MS/MS analysis; assay type: ADME, organism-based; conditions: in vivo
[15] = AUC(0 to t) in ICR mouse at 2 mg/kg, iv measured by LC-MS/MS analysis; assay type: ADME, organism-based; design: dose 2 mg/kg, route iv; conditions: in vivo
[16] = AUC(0 to t) in ICR mouse at 10 mg/kg, po measured by LC-MS/MS analysis; assay type: ADME, organism-based; design: dose 10 mg/kg, route po; conditions: in vivo
[17] = Half-life in ICR mouse at 10 mg/kg, po measured by LC-MS/MS analysis; assay type: ADME, organism-based; conditions: in vivo
[18] = Cmax in ICR mouse at 2 mg/kg, iv measured by LC-MS/MS analysis; assay type: ADME, organism-based; design: dose 2 mg/kg, route iv; conditions: in vivo
[19] = Tmax in ICR mouse at 2 mg/kg, iv measured by LC-MS/MS analysis; assay type: ADME, organism-based; conditions: in vivo
[20] = Oral bioavailability in ICR mouse at 10 mg/kg measured by LC-MS/MS analysis; assay type: ADME, organism-based; conditions: in vivo
[21] = target: T2, von Hippel-Lindau disease tumor suppressor/Androgen receptor (Homo sapiens, UniProt P10275+P40337); experiment: PROTAC activity at VHL/AR-V7 in human 22Rv1 cells assessed as induction of AR degradation by Immunoblot analysis; assay type: cell-based
Target sequence in this assay (P10275 whole entry, looked up, change not shown): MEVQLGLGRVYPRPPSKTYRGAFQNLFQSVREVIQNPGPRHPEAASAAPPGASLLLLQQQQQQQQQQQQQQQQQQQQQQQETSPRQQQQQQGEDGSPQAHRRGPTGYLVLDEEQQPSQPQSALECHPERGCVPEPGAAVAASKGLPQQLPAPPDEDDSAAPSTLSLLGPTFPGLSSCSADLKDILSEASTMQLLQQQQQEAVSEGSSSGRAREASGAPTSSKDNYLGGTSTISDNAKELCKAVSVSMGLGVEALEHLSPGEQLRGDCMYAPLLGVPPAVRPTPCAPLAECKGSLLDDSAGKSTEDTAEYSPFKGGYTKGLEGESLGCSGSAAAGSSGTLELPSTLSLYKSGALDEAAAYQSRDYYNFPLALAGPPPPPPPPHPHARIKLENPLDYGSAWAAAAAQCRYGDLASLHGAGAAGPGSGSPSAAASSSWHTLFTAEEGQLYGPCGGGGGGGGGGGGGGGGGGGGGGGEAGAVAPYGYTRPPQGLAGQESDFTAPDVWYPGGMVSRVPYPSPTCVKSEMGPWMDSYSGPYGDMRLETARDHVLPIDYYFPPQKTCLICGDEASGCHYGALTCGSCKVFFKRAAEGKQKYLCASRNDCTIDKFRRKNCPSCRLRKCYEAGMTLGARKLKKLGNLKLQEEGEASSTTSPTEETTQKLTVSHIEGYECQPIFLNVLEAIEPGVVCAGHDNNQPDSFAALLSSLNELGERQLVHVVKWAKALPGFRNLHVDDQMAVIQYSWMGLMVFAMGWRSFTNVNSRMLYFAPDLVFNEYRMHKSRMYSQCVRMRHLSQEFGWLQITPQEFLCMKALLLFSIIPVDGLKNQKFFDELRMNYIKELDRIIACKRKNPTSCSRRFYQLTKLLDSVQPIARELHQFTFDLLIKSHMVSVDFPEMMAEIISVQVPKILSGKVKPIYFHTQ
Target sequence in this assay (P40337 whole entry, looked up, change not shown): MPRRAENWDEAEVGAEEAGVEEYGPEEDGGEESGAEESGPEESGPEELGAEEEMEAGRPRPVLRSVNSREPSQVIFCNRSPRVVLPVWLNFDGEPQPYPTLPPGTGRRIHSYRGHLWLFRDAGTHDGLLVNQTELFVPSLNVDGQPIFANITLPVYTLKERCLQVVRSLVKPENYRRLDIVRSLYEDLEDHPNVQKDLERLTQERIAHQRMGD

[22] = target: T2, von Hippel-Lindau disease tumor suppressor/Androgen receptor; experiment: PROTAC activity at VHL/full-length AR in human LNCaP cells assessed as induction of AR degradation at 5 uM by Western blot analysis relative to control; assay type: cell-based
Target sequence in this assay (P10275 whole entry, looked up): as the sequence (P10275 whole entry, looked up, change not shown) above
Target sequence in this assay (P40337 whole entry, looked up): as the sequence (P40337 whole entry, looked up, change not shown) above

[23] = test system: von Hippel-Lindau disease tumor suppressor/Androgen receptor (Homo sapiens), P10275+P40337 [UNDEFINED MUTATION]; experiment: PROTAC activity at VHL/AR-V7 in human VCaP cells assessed as induction of AR degradation at 1 uM by Western blot analysis relative to control; assay type: cell-based
[24] = target: T2, von Hippel-Lindau disease tumor suppressor/Androgen receptor; experiment: PROTAC activity at VHL/full-length AR in human VCaP cells assessed as induction of AR degradation at 1 uM by Western blot analysis relative to control; assay type: cell-based
Target sequence in this assay (P10275 whole entry, looked up): as the sequence (P10275 whole entry, looked up, change not shown) above
Target sequence in this assay (P40337 whole entry, looked up): as the sequence (P40337 whole entry, looked up, change not shown) above

[25] = target: T2, von Hippel-Lindau disease tumor suppressor/Androgen receptor; experiment: PROTAC activity at VHL/full-length AR in human LNCaP cells assessed as induction of AR degradation at 1 uM by Western blot analysis relative to control; assay type: cell-based
Target sequence in this assay (P10275 whole entry, looked up): as the sequence (P10275 whole entry, looked up, change not shown) above
Target sequence in this assay (P40337 whole entry, looked up): as the sequence (P40337 whole entry, looked up, change not shown) above

[26] = test system: von Hippel-Lindau disease tumor suppressor/Androgen receptor (Homo sapiens), P10275+P40337 [UNDEFINED MUTATION]; experiment: PROTAC activity at VHL/AR-V7 in human VCaP cells assessed as induction of AR degradation at 5 uM by Western blot analysis relative to control; assay type: cell-based
[27] = target: T2, von Hippel-Lindau disease tumor suppressor/Androgen receptor; experiment: PROTAC activity at VHL/full-length AR in human VCaP cells assessed as induction of AR degradation at 5 uM by Western blot analysis relative to control; assay type: cell-based
Target sequence in this assay (P10275 whole entry, looked up): as the sequence (P10275 whole entry, looked up, change not shown) above
Target sequence in this assay (P40337 whole entry, looked up): as the sequence (P40337 whole entry, looked up, change not shown) above

LNCaP [28] = experiment: Antitumor activity against human LNCaP cells xenografted in NOD SCID mouse assessed as tumor growth inhibition at 180 mg/kg, po administered daily for 4 weeks relative to control; assay type: functional; conditions: 672 h, read-out: TGI
LNCaP [29] = experiment: Inhibition of colony formation in human LNCaP cells at 1 to 10 uM incubated for 2 weeks by crystal violet staining based analysis; assay type: functional, cell-based; conditions: dose 1-10 µM
VCaP = experiment: Antiproliferative activity against human VCaP cells assessed as reduction in cell viability incubated for 6 days by CCK-8 assay; assay type: functional, cell-based; conditions: 144 h
LNCaP [30] = experiment: Antiproliferative activity against human LNCaP cells assessed as reduction in cell viability incubated for 6 days by CCK-8 assay; assay type: functional, cell-based; conditions: 144 h
CWR22R [31] = experiment: Inhibition of colony formation in human 22Rv1 cells at 1 to 10 uM incubated for 2 weeks by crystal violet staining based analysis; assay type: functional, cell-based; conditions: dose 1-10 µM
CWR22R [32] = experiment: Antiproliferative activity against enzalutamide-resistant human 22Rv1 cells assessed as reduction in cell viability incubated for 6 days by CCK-8 assay; assay type: functional, cell-based; conditions: 22Rv1, 144 h

T1 sequence (P10275 whole entry, looked up): as the sequence (P10275 whole entry, looked up, change not shown) above
T1 sequence (Q96SW2 whole entry, looked up): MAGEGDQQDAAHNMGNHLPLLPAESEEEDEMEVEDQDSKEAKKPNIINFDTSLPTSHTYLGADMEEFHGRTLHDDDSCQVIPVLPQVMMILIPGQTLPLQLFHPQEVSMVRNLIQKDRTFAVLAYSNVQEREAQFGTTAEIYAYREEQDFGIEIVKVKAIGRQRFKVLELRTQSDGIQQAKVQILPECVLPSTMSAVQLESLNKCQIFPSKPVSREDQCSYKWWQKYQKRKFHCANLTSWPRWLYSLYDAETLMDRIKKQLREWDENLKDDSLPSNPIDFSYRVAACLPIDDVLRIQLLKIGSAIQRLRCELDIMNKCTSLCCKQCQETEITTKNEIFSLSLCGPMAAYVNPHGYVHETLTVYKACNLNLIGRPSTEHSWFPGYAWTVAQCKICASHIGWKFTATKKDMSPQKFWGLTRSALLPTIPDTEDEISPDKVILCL
Sequence of Protein cereblon/Androgen receptor (Homo sapiens), P10275+Q96SW2 [UNDEFINED MUTATION] (P10275 whole entry, looked up, stated change not applied): as the sequence (P10275 whole entry, looked up, change not shown) above
Sequence of Protein cereblon/Androgen receptor (Homo sapiens), P10275+Q96SW2 [UNDEFINED MUTATION] (Q96SW2 whole entry, looked up, stated change not applied): as the sequence (Q96SW2 whole entry, looked up) above
Sequence of von Hippel-Lindau disease tumor suppressor/Androgen receptor (Homo sapiens), P10275+P40337 [UNDEFINED MUTATION] (P10275 whole entry, looked up, change not shown): as the sequence (P10275 whole entry, looked up, change not shown) above
Sequence of von Hippel-Lindau disease tumor suppressor/Androgen receptor (Homo sapiens), P10275+P40337 [UNDEFINED MUTATION] (P40337 whole entry, looked up, change not shown): as the sequence (P40337 whole entry, looked up, change not shown) above

Structure (SMILES): CC(C)(c1ccc(OCC2CCN(CC3CCN(CC4CCN(c5cccc6c5C(=O)N(C5CCC(=O)NC5=O)C6=O)CC4)CC3)CC2)cc1)c1ccc(OC[C@H](O)CCl)cc1 (stereo not given in full)
- Activity (PC-3 [1]): Toxic
- Activity (CWR22R [2]): Toxic

Structure (SMILES): CNC(=O)c1ccc(N2C(=S)N(c3ccc(C#N)c(C(F)(F)F)c3)C(=O)C2(C)C)cc1F [ENZALUTAMIDE]
- inhibition in vivo at 10 mg/kg (LNCaP [3]): 72%
- Activity (RWPE-1): Non-Toxic

Structure (SMILES): CC(C)(c1ccc(OCC2CCN(CC3CCN(CC4CCN(c5ccc6c(c5)C(=O)N(C5CCC(=O)NC5=O)C6=O)CC4)CC3)CC2)cc1)c1ccc(OC[C@H](O)CCl)cc1 (stereo not given in full)
- Activity (PC-3 [4]): Toxic
- Activity [5]: inactive
- Activity [6]: inactive
- Activity [7]: inactive
- IC50 at 6 days [8]: 1370 nM
- Activity [9]: inactive
- Activity (CWR22R [10]): Toxic

Structure (SMILES): CC(C)(c1ccc(OCC2CCN(C(=O)CCCNc3ccc4c(c3)C(=O)N(C3CCC(=O)NC3=O)C4=O)CC2)cc1)c1ccc(OC[C@H](O)CCl)cc1 (stereo not given in full)
- Tmax [11]: 0.2 h
- Cmax [12]: 130 ng/mL
- clearance [13]: 111 mL/min/kg
- half-life [14]: 0.5 h
- AUC(0-t) [15]: 303 ng·h/mL
- AUC(0-t) [16]: 113 ng·h/mL
- half-life [17]: 1.8 h
- Cmax [18]: 518 ng/mL
- Tmax [19]: 6 min
- bioavailability [20]: 7.8%

Structure (SMILES): CC(C)(c1ccc(OCC2CCN(CC3CCN(C4CCN(c5cccc6c5C(=O)N(C5CCC(=O)NC5=O)C6=O)CC4)CC3)CC2)cc1)c1ccc(OC[C@H](O)CCl)cc1 (stereo not given in full)
- Activity (PC-3 [1]): Toxic
- Activity (CWR22R [2]): Toxic

Structure (SMILES): CC(C)(c1ccc(OCC2CCN(CC3CN(C4CCN(c5cccc6c5C(=O)N(C5CCC(=O)NC5=O)C6=O)CC4)C3)CC2)cc1)c1ccc(OC[C@H](O)CCl)cc1 (stereo not given in full)
- Tmax [11]: 2 h
- Cmax [12]: 47 ng/mL
- clearance [13]: 38.6 mL/min/kg
- half-life [14]: 13.6 h
- AUC(0-t) [15]: 645 ng·h/mL
- AUC(0-t) [16]: 332 ng·h/mL
- half-life [17]: 20.5 h
- Cmax [18]: 662 ng/mL
- Tmax [19]: 6 min
- bioavailability [20]: 12.3%

Structure (SMILES): Cc1ncsc1-c1ccc([C@H](C)NC(=O)[C@@H]2C[C@@H](O)CN2C(=O)[C@@H](NC(=O)CCCCNC(=O)COc2c(-c3csc(N4CCOCC4)n3)ccc(F)c2F)C(C)(C)C)cc1
- EC50 [21]: 370 nM

Structure (SMILES): Cc1ncsc1-c1ccc(CNC(=O)[C@@H]2C[C@@H](O)CN2C(=O)[C@@H](NC(=O)Cn2cc(CCCCOc3ccc(C(C)(C)c4ccc(OC[C@H](O)CCl)cc4)cc3)nn2)C(C)(C)C)cc1
- Activity [22]: 36.6%
- Activity [23]: 56.4%
- Activity [24]: 43.2%
- Activity [25]: 22%
- Activity [26]: 59.5%
- Activity [27]: 53.5%

Structure (SMILES): Cc1ncsc1-c1ccc(CNC(=O)[C@@H]2C[C@@H](O)CN2C(=O)[C@@H](NC(=O)Cn2cc(CCCCCOc3ccc(C(C)(C)c4ccc(OC[C@H](O)CCl)cc4)cc3)nn2)C(C)(C)C)cc1
- Activity [22]: 31.9%
- Activity [23]: 38.1%
- Activity [24]: 48.9%
- Activity [25]: 27.5%
- Activity [26]: 48.2%
- Activity [27]: 39.6%

Structure (SMILES): CC(C)(c1ccc(OC[C@H](O)CO)cc1)c1ccc(OC[C@H](O)CCl)cc1
- inhibition in vivo at 180 mg/kg (LNCaP [28]): 43%
- inhibition (LNCaP [29]): inactive
- IC50 (VCaP): > 30000 nM
- IC50 (LNCaP [30]): > 30000 nM
- inhibition (CWR22R [31]): inactive
- IC50 (CWR22R [32]): > 30000 nM

Structure (SMILES): CC(C)(c1ccc(OCC2CCN(CC3CCN(C4CCN(c5ccc6c(c5)C(=O)N(C5CCC(=O)NC5=O)C6=O)CC4)CC3)CC2)cc1)c1ccc(OC[C@H](O)CCl)cc1 (stereo not given in full)
- Activity (PC-3 [4]): Toxic
- Activity [5]: inactive
- Activity [6]: inactive
- Activity [7]: inactive
- IC50 at 6 days [8]: 1030 nM
- Activity [9]: inactive
- Activity (CWR22R [10]): Toxic

Structure (SMILES): Cc1ncsc1-c1ccc(CNC(=O)[C@@H]2C[C@@H](O)CN2C(=O)[C@@H](NC(=O)Cn2cc(CCCOc3ccc(C(C)(C)c4ccc(OC[C@H](O)CCl)cc4)cc3)nn2)C(C)(C)C)cc1
- Activity [22]: 27.9%
- Activity [23]: 45.9%
- Activity [24]: 18.4%
- Activity [25]: 17.6%
- Activity [26]: 63.3%
- Activity [27]: 31%
